Experiment [1] has as its target T1, B-cell lymphoma 6 protein (Homo sapiens, UniProt P41182). Description: Binding affinity to recombinant N-terminal GST-tagged/RED-NHS labelled wild-type BCL6 BTB domain (5 to 129 residues) (unknown origin) expressed in Escherichia coli Rosetta BL21 (DE3) at 1 mM incubated for 30 mins under dark condition in by single-point microscale thermophoresis method.
Experiment [2] has as its target T1, B-cell lymphoma 6 protein. Briefly: Binding affinity to recombinant N-terminal GST-tagged/RED-NHS labelled wild-type BCL6 BTB domain (5 to 129 residues) (unknown origin) expressed in Escherichia coli Rosetta BL21 (DE3) incubated for 30 mins under dark condition by microscale thermophoresis method. The settings on record: read-out: Kd(app). On the technique in general: MST reads how a fluorescent partner responds to local heating, with and without ligand.

Experiment [3] concerns the target B-cell lymphoma 6 protein (Homo sapiens, UniProt P41182, C67R/C84N/C8Q). Briefly: Binding affinity to recombinant RED-NHS labelled BCL6 BTB domain (unknown origin) C8Q/C67R/C84N triple mutant expressed in Escherichia coli Rosetta BL21 (DE3) incubated for 30 mins under dark condition by microscale thermophoresis method. The settings on record: read-out: Kd(app).

Experiment [4] concerns the target T1, B-cell lymphoma 6 protein. Description: Stabilization of recombinant N-terminal GST-tagged wild-type BCL6 BTB domain (5 to 129 residues) (unknown origin) expressed in Escherichia coli Rosetta BL21 (DE3) assessed as change in melting temperature measured every 30 secs by SYPRO orange dye based thermal shift assay.
For experiment [5], the system named is B-cell lymphoma 6 protein (Homo sapiens), P41182 [C8Q,C67R,C84N]. Briefly: Stabilization of recombinant BCL6 BTB domain (unknown origin) C8Q/C67R/C84N triple mutant expressed in Escherichia coli Rosetta BL21 (DE3) assessed as change in melting temperature measured every 30 secs by SYPRO orange dye based thermal shift assay.
Experiment [6] deals with T1, B-cell lymphoma 6 protein. Description: Binding affinity to recombinant N-terminal GST-tagged/RED-NHS labelled wild-type BCL6 BTB domain (5 to 129 residues) (unknown origin) expressed in Escherichia coli Rosetta BL21 (DE3) incubated for 30 mins under dark condition in presence of DTT by microscale thermophoresis method.
The test system of experiment [7] is B-cell lymphoma 6 protein (Homo sapiens), P41182 [C8Q,C67R,C84N]. Briefly: Binding affinity to recombinant RED-NHS labelled BCL6 BTB domain (unknown origin) C8Q/C67R/C84N triple mutant expressed in Escherichia coli Rosetta BL21 (DE3) incubated for 30 mins under dark condition in presence of DTT by microscale thermophoresis method.
Experiment [8] has the same test system. Briefly: Binding affinity to recombinant RED-NHS labelled BCL6 BTB domain (unknown origin) C8Q/C67R/C84N triple mutant expressed in Escherichia coli Rosetta BL21 (DE3) assessed as decrease in SMRT2 peptide binding incubated for 30 mins under dark condition by microscale thermophoresis method relative to control.
The test system is the same in experiment [9]. Briefly: Inhibition of recombinant BCL6 C8Q/C67R/C84N triple mutant BTB domain dimerization (unknown origin) expressed in Escherichia coli Rosetta BL21 (DE3) at 500 uM by size exclusion chromatographic method. Background: Size exclusion chromatography separates by hydrodynamic size, large species first.

Activity calls are given as the source filed them. The rule behind the calls is not given here. Where a SMILES comes first, the peptide text is derived from it.

Take `CC[C@@H](C)[C@@H]1NC(=O)[C@H](CS)NC(=O)[C@H](C(C)C)NC(=O)[C@H](C)NC(=O)[C@H](Cc2ccc(O)cc2)NC(=O)[C@H](Cc2ccc(O)cc2)NC1=O`: in [1], the result was inactive.
Same read-out and setting: the same measure for `CC[C@@H](C)[C@@H]1NC(=O)[C@H](C)NC(=O)[C@H](C(C)C)NC(=O)[C@H](CS)NC(=O)[C@H](Cc2ccc(O)cc2)NC(=O)[C@H](Cc2ccc(O)cc2)NC1=O`: “inactive”; for `CC[C@@H](C)[C@@H]1NC(=O)[C@H](CS)NC(=O)[C@H](C)NC(=O)[C@H](CS)NC(=O)[C@H](Cc2ccc(O)cc2)NC(=O)[C@H](Cc2ccc(O)cc2)NC1=O`: “Active”.
On to `CC(C)[C@@H]1NC(=O)[C@H](CS)NC(=O)[C@H](Cc2ccc(O)cc2)NC(=O)[C@H](Cc2ccc(O)cc2)NC(=O)[C@H](C)NC(=O)[C@H](CS)NC1=O` (cyclo(AYYCVC)), for which the outcome in [1] was Active.
As to `CC[C@@H](C)[C@@H]1NC(=O)[C@H](CS)NC(=O)[C@H](C(C)C)NC(=O)[C@H](CS)NC(=O)[C@H](Cc2ccc(O)cc2)NC(=O)[C@H](Cc2ccc(O)cc2)NC1=O`, the results for the Kd in experiment [2] and in [3] were 142 µM and 50 µM, respectively. For the same compound, the Activity result in [4] and in experiment [5] was “Dose-dependent effect” in each case. The result in experiment [6] and in experiment [7] was inactive. In experiment [8], the fold change (FC) was determined as 3. Moreover, the outcome in [1] was Active. Besides, the inhibition entry in [9] is “Active”.
`CC[C@@H](C)[C@@H]1NC(=O)[C@H](CS)NC(=O)[C@H](C(C)C)NC(=O)[C@H](CS)NC(=O)[C@H](Cc2ccc(O)cc2)NC(=O)[C@H](C)NC1=O`: the outcome in experiment [1] was Active.
Consider `CC[C@@H](C)[C@@H]1NC(=O)[C@H](CS)NC(=O)[C@H](C(C)C)NC(=O)[C@H](CS)NC(=O)[C@H](C)NC(=O)[C@H](Cc2ccc(O)cc2)NC1=O`, for which, in [1], the outcome was inactive.
